From publication PMC11582173, “Synthesis, cytotoxicity, anti-inflammatory, anti-metastatic and anti-oxidant activities of novel chalcones incorporating 2-phenoxy-N-arylacetamide and thiophene moieties: induction of apoptosis in MCF7 and HEP2 cells” (Naunyn-Schmiedeberg's Archives of Pharmacology, 2024)
Values after ≈ are worked out from the molar mass of the structure shown.

What was measured:
[1] = system: MCF7; design: method as in Khairul et al. [2020]; settings: reported chalcone derivatives; ref Khairul et al. [2020]; cited from earlier work
[2] = system: normal African Green monkey kidney cell line (VERO); assay: SRB cytotoxic assay, VERO normal cells; assay type: cell-based; settings: Chlorocebus sabaeus, single dose 100 µg/mL, 48 h, read-out: %Inhibition at100 µg/mL VERO
Procedure: (§1) All the prepared compounds were screened at a concentration of 100 µg/mL against six different human cell lines: human laryngeal carcinoma (HEP2), human colorectal carcinoma (HCT116), human breast carcinoma (MCF7), human Lung carcinoma (A549), human liver carcinoma (HEPG2), and normal African Green monkey kidney cell line (VERO). Doxorubicin was used as a positive control for comparison purposes.
(§2) The human laryngeal carcinoma (HEP2), colorectal carcinoma (HCT116), breast carcinoma (MCF7), Lung carcinoma (A549), liver carcinoma (HEPG2), and normal African Green monkey kidney cell line (VERO) were purchased from American Tissue Culture Collection (Rockville, MD, USA). The cells were treated for 48 h with a single dose (100 µg/mL) of all the tested chalcones. […] In brief, the cells were seeded in a 96-well microtiter plate at a concentration of 5×10^3 cells/well in 100 µL fresh RPMI-1640 medium and left to attach to the plates for 24 h. Then, cells were incubated with 100 μL of different concentrations (50, 25, 12.5, 6.25, and 0.0 µg/mL) of 5c in triplicate at 37 °C for 48 h. After that, the cells were fixed with 10 µL cold 100% Trichloroacetic acid (TCA) for 1h at 4 °C. The wells were then washed 1 time with distilled water using (automatic Tecan washer, Germany) and stained for 30 min at room temperature with 50 µL 0.4% SRB dissolved in 1% acetic acid. The plates were air-dried and the dye was solubilized with 100 µl/well of 1M tris base (pH 10.5) for 5 min. The optical density (O.D.) of each well was measured spectrophotometrically at 570 nm with an ELISA microplate reader (Sunrise Tecan reader, Germany) with automatic shaking for 30 seconds before reading. The mean background absorbance was subtracted automatically and mean values for each drug concentration were calculated. The percentage of cell survival was calculated as follows: Survival fraction= O.D. (treated cells)/ O.D. (control cells) (Bhat et al. [2023]).

[3] = system: human breast carcinoma (MCF7) cells; assay: SRB cytotoxic assay, MCF7; assay type: cell-based; settings: MCF7, 48 h; for inhibition at 100 µg/mL: single dose 100 µg/mL, read-out: %Inhibition at100 µg/mL MCF7
Procedure: as §1, §2

[4] = system: human liver carcinoma (HEPG2) cells; assay: SRB cytotoxic assay, HEPG2; assay type: cell-based; settings: single dose 100 µg/mL, 48 h, read-out: %Inhibition at100 µg/mL HEPG2
Procedure: as §1, §2

[5] = system: human laryngeal carcinoma (HEP2) cells; assay: SRB cytotoxic assay, HEP2; assay type: cell-based; settings: HEp-2, 48 h; for inhibition at 100 µg/mL: single dose 100 µg/mL, read-out: %Inhibition at100 µg/mL HEP2
Procedure: as §1, §2

[6] = system: human colorectal carcinoma (HCT116) cells; assay: SRB cytotoxic assay, HCT116; assay type: cell-based; settings: HCT-116, single dose 100 µg/mL, 48 h, read-out: %Inhibition at100 µg/mL HCT116
Procedure: as §1, §2

[7] = system: human Lung carcinoma (A549) cells; assay: SRB cytotoxic assay, A549; assay type: cell-based; settings: single dose 100 µg/mL, 48 h, read-out: %Inhibition at100 µg/mL A549
Procedure: as §1, §2

| Structure (SMILES) | IC50 cytotoxic effect against MCF7 [1] | inhibition at 100 µg/mL [2] | inhibition at 100 µg/mL [3] | inhibition at 100 µg/mL [4] | inhibition at 100 µg/mL [5] | inhibition at 100 µg/mL [6] | melting point | inhibition at 100 µg/mL [7] | IC50 [3] | IC50 [5] |
| --- | --- | --- | --- | --- | --- | --- | --- | --- | --- | --- |
| CCCCCCOc1ccc(/C=C/C(=O)c2ccc(C#N)cc2)cc1 [(E)-1-(4-cyanophenyl)-3-(4-(hexyloxy)phenyl) prop-2-en-1-one] | 13.75 mg/L (≈ 41.2 µM) | – | – | – | – | – | – | – | – | – |
| CCCCCCOc1ccc(/C=C/C(=O)c2ccc([N+](=O)[O-])cc2)cc1 [(E)-1-(4-nitrophenyl)-3-(4-(hexyloxy)phenyl) prop-2-en-1-one] | 14.75 mg/L (≈ 41.7 µM) | – | – | – | – | – | – | – | – | – |
| O=C(COc1ccc(C=CC(=O)c2cccs2)cc1)Nc1ccccc1 [Compound 5a, 2-(4-(3-Oxo-3-(thiophen-2-yl)prop-1-en-1-yl)phenoxy)-N-phenylacetamide] | – | 55 ± 3% | 33.7 ± 1.5% | 30 ± 1.2% | 4.53 ± 0.08% | 5.18 ± 1.6% | 194 to 196 °C | 22 ± 1.4% | – | – |
| Cc1ccc(NC(=O)COc2ccc(C=CC(=O)c3cccs3)cc2)cc1 [Compound 5b, 2-(4-(3-Oxo-3-(thiophen-2-yl)prop-1-en-1-yl)phenoxy)-N-(p-tolyl)acetamide] | – | 60 ± 1% | 0.52 ± 2.1% | 25 ± 1.9% | 7.2 ± 1.4% | 5.92 ± 1.2% | 202 to 204 °C | 10.2 ± 2% | – | – |
| O=C(COc1ccc(C=CC(=O)c2cccs2)cc1)Nc1ccc(Cl)cc1 [Compound 5d, N-(4-Chlorophenyl)-2-(4-(3-oxo-3-(thiophen-2-yl)prop-1-en-1-yl)phenoxy)acetamide] | – | 80 ± 2% | 40.09 ± 0.07% | 45.2 ± 1.7% | 0.36 ± 0.05% | 0.85 ± 1.1% | 198 to 200 °C | 44.1 ± 1.3% | – | – |
| O=C(COc1ccc(C(=O)C=Cc2cccs2)cc1)Nc1ccccc1 [Compound 9a, N-Phenyl-2-(4-(3-(thiophen-2-yl)acryloyl)phenoxy)acetamide] | – | 58 ± 1.4% | > 75% | 64 ± 1.5% | > 75% | 44.7 ± 1% | – | 52 ± 2.7% | 24.5 mg/L (≈ 67.4 µM) | 15.5 mg/L (≈ 42.6 µM) |
| Cc1ccc(NC(=O)COc2ccc(C(=O)C=Cc3cccs3)cc2)cc1 [Compound 9b, 2-(4-(3-(Thiophen-2-yl)acryloyl)phenoxy)-N-(p-tolyl)acetamide] | – | 15 ± 2.4% | 18.6 ± 0.05% | 26 ± 1.7% | 17.9 ± 1.3% | 0.92 ± 1.7% | 200 to 202 °C | 33 ± 3.1% | – | – |
| COc1ccc(NC(=O)COc2ccc(C(=O)C=Cc3cccs3)cc2)cc1 [Compound 9c, N-(4-Methoxyphenyl)-2-(4-(3-(thiophen-2-yl)acryloyl)phenoxy)acetamide] | – | < 10% | 1.81 ± 1.3% | < 10% | 7.2 ± 1.7% | 16.3 ± 1.9% | 205 to 207 °C | < 10% | – | – |
| O=C(COc1ccc(C(=O)C=Cc2cccs2)cc1)Nc1ccc(Cl)cc1 [Compound 9d, N-(4-Chlorophenyl)-2-(4-(3-(thiophen-2-yl)acryloyl)phenoxy)acetamide] | – | 10 ± 1% | 2.28 ± 4.1% | < 10% | 17.9 ± 2.3% | 6.66 ± 3.3% | 193 to 195 °C | < 10% | – | – |
| COc1cccc2c1C(=O)c1c(O)c3c(c(O)c1C2=O)C[C@@](O)(C(=O)CO)C[C@@H]3O[C@H]1C[C@H](N)[C@H](O)[C@H](C)O1 [Doxorubicin, reference compound] | – | 45 ± 2% | 86.6 ± 1.6% | 81 ± 2% | 83.2 ± 1.1% | 71.5 ± 0.9% | – | 77 ± 1.5% | 5.5 mg/L (≈ 10.1 µM) | 11 mg/L (≈ 20.2 µM) |
